Results from paper PMC10223284, “Category-Based Toxicokinetic Evaluations of Data-Poor Per- and Polyfluoroalkyl Substances (PFAS) using Gas Chromatography Coupled with Mass Spectrometry” (Toxics, 2023).
Values joined by “and” are separate entries in the source; they are usually repeats but may differ in a detail not shown here. Identical values can stand only once.

How the values were obtained:
[1] = Abiotic loss in negative controls of the hepatocyte clearance assay (cell-free media, metabolically inactivated hepatocytes); assay type: in vitro ADME; details: flag for stability failure in hepatocyte clearance assay controls (1 or Fst = fail, 0 = pass)
Method: The hepatic metabolic stability assay measures the loss of a parent compound over time in a substrate-depletion approach. Briefly, hepatocyte suspensions, after a viability assessment, were diluted in complete William’s medium E (containing dexamethasone and cell maintenance cocktail B) prior to addition to 96-well polypropylene plates containing an equal volume of media spiked with the test compound (1 μM assay concentration; assay cell density = 50,000 cells/100 μL) and maintained at 37 °C with shaking. At each time point, relevant plates were crashed with an equal volume of ice-cold acetonitrile, centrifuged, and supernatant transferred to a new plate prior to storage at <−70 °C until quantitative analysis. Controls, run in parallel, included cell-free (i.e., media only) and metabolically inactivated hepatocytes to evaluate abiotic chemical stability in the aqueous media matrix with and without cellular protein. In preliminary runs, these controls were run at T0 and T240 only. If significant instability was noted, the hepatocyte clearance assay was rerun, including cell-free samples at each time point and metabolically inactivated hepatocytes at selected time points.
Negative controls, including media only and metabolically inactivated hepatocyte controls, were included to monitor abiotic loss (i.e., background clearance) during the assay. Where significant compound loss occurred using the analysis described above, background clearance rates were calculated and used to background-adjust hepatic metabolic clearance rates. Where chemicals were cleared prior to the end of the analysis, at 240 min (T240), the corresponding negative control timepoint was used for background subtraction. Any chemicals displaying a 50% or more abiotic loss at T120 were deemed unstable and were excluded from further analyses.

[2] = tested on: human plasma; experiment: Ultracentrifugation (UC) plasma protein binding assay, fraction unbound in plasma (fup); details: for Fup.Med: median fraction unbound in plasma; for Fup.Med / Fup.point: UC assay Level4; for Fup.point: point estimate of fraction unbound in plasma; for Fraction Unbound (fu), replicates A, B, C: single replicate of one UC run (aqueous fraction / Time 5 hr); for Mean fu: fraction unbound in human plasma, ultracentrifugation, some values based on eLOQ; for Mean Fu: mean fraction unbound over all replicates and runs, UC assay; for Aqueous Fraction / Aqueous Fraction, Run-specific Avg: amount measured in aqueous fraction after ultracentrifugation, unit not given; for Aqueous Fraction: replicates A, B, C; for Aqueous Fraction, Run-specific Avg: run average
[3] = in vitro; details: both, human, plasma
[4] = tested on: human plasma; experiment: Chemical stability in plasma over the UC assay time course (T5hr/T1hr); details: for PPB_Stab_Fail: flag for stability failure in the plasma protein binding assay (1 = fail, 0 = pass); for Fstable.Med: median fraction stable in plasma, UC assay Level4; for Stability (T5hr/ T1hr), replicates A, B, C: single replicate of one UC run; for % remaining_PPB: chemical remaining in plasma over the PPB assay time course, NS = no significant loss; for Time 1 hr / Time 1 hr, Run-specific Avg: amount measured in plasma sample at 1 hr; for Time 1 hr / Time 5 hr: replicates A, B, C; for Time 1 hr / Time 1 hr, Run-specific Avg / Time 5 hr / Time 5 hr, Run-specific Avg: unit not given; for Time 1 hr, Run-specific Avg / Time 5 hr, Run-specific Avg: run average; for Time 5 hr / Time 5 hr, Run-specific Avg: amount measured in plasma sample at 5 hr
[5] = Mean fu, fraction unbound in human plasma, ultracentrifugation, some values based on eLOQ
[6] = average of one UC run (run date in line above)
[7] = mean T5hr/T1hr ratio over all replicates and runs, plasma
[8] = mean T5hr/T1hr ratio in plasma over all replicates/runs
[9] = mean over all UC runs and replicates, human plasma

SMILES | Hep_Stab_Fail [1] | Fup.Med [2] | Fup.point [2] | Stability (T5hr/ T1hr), Run-specific Avg [4, 6] | PPB_Stab_Fail [4] | Mean Stability [4, 7] | Fstable.Med [4] | Stability (T5hr/ T1hr), replicates A, B, C [4] | % remaining_PPB [4] [%] | Mean fu [2] | other results
OCCCC(F)(F)C(F)(F)C(F)(F)F [3-(Perfluoropropyl)propanol] | 1 | 0.202 | 0.205 | 0.890 | 0 | 0.892 | 0.2 | 0.858 and 0.887 and 0.929 | – | – | Fraction Unbound (fu), replicates A, B, C [2]: 0.224 and 0.207; fraction unbound ([3]; Fraction Unbound (fu), Run-specific Avg, average of one UC run (run date in line above)): 0.2; fraction unbound ([3]; Fraction Unbound (fu), replicates A, B, C, single replicate of one UC run (aqueous fraction / Time 5 hr)): 0.179; fraction unbound ([3]; Mean Fu, mean fraction unbound over all replicates and runs, UC assay, human plasma): 0.203; fraction unbound [3, 5]: 0.203
C=C(C)C(=O)OCCC(F)(F)C(F)(F)C(F)(F)C(F)(F)C(F)(C(F)(F)F)C(F)(F)F [(Perfluoro-5-methylhexyl)ethyl 2-methylprop-2-enoate] | 1 | 4.30E-06 | 0.0603 | – | – | – | 0.43 | – | 63.6 | – | fraction unbound [3, 5]: 0.0603
FC(F)(F)COC(OCC(F)(F)F)OCC(F)(F)F [tris(Trifluoroethoxy)methane] | 1 | 0.132 | 0.0994 | 0.660 | 0 | 0.662 | 0.362 | 0.6799 and 0.6407 and 0.6662 | 66 | 0.1728 | Fraction Unbound (fu), Run-specific Avg [2, 6]: 0.17; Mean Fu ([2]; human plasma): 0.173; Fraction Unbound (fu), replicates A, B, C [2]: 0.186 and 0.1626 and 0.1699
FC(F)(F)C(F)(F)C(F)(F)C(F)(F)C(F)(F)C(F)(F)C(F)(F)I [1-Iodopentadecafluoroheptane] | 1 | 0.907 | – | – | 1 | – | 0.202 | – | 16 | – | –
N=C(N)C(F)(F)C(F)(F)C(F)(F)C(F)(F)C(F)(F)C(F)(F)C(F)(F)F [Perfluorooctanamidine] | 1 | 4.95E-09 | 0.0261 | 0.890 | 0 | 0.892 | 0.0291 | 0.858 and 0.887 and 0.929 | 67 | 0.0253 | –
OCC(F)(F)C(F)(F)C(F)(F)C(F)F [1H,1H,5H-Perfluoropentanol] | 1 | 0.791 | 0.355 | 0.858 | 0 | 0.855 | 1 | 0.775 and 0.902 and 0.887 | – | 0.3616 | Fraction Unbound (fu), Run-specific Avg [2, 6]: 0.36; Mean Fu ([2]; human plasma): 0.362; Fraction Unbound (fu), replicates A, B, C [2]: 0.445 and 0.315 and 0.324
OCC(F)(F)C(F)(F)C(F)(F)CO [Hexafluoroamylene] | – | 0.627 | 0.675 | – | – | – | 0.988 | – | – | – | Aqueous Fraction [2]: 160.563 and 273.771 and 229.145; Aqueous Fraction, Run-specific Avg [2]: 221.16; fraction unbound ([3]; Fraction Unbound (fu), Run-specific Avg, average of one UC run): 0.06; fraction unbound ([3]; Fraction Unbound (fu), individual replicates A, B, C of the UC run named in c8): 0.0437; fraction unbound ([3]; Mean Fu, mean fraction unbound in human plasma over all UC replicates/runs): 0.06; Time 1 hr [4]: 5856.63 and 5544.86 and 5920.14; Time 1 hr, Run-specific Avg [4]: 5773.88; Time 5 hr [4]: 3672.88 and 3626.61 and 3711.47; Time 5 hr, Run-specific Avg [4]: 3649.75; Stability (T5hr/ T1hr), Run-specific Avg ([4]; average of one UC run): 0.632; Mean Stability [4, 8]: 0.636
OCC(F)(F)C(F)(F)C(F)(F)C(F)(F)C(F)(F)C(F)(F)F [6:1 Fluorotelomer alcohol] | 1 | 0.0187 | 0.0386 | – | 0 | – | 0.204 | – | – | – | Aqueous Fraction [2]: 212.981 and 210.941 and 147.734; Aqueous Fraction, Run-specific Avg [2]: 190.55; Fraction Unbound (fu), Run-specific Avg ([2]; average of one UC run): 0.0231; Time 1 hr [4]: 10923.7 and 9182.55 and 11162.4; Time 1 hr, Run-specific Avg [4]: 10422.90; Time 5 hr [4]: 5789.66 and 11336.8 and 10690.6; Time 5 hr, Run-specific Avg [4]: 8563.21; Stability (T5hr/ T1hr), Run-specific Avg ([4]; average of one UC run): 0.822; Mean Stability [4, 8]: 0.907
FC(F)(F)C(F)(F)C(F)(F)C(F)(F)C(F)(F)C(F)(F)C(F)(F)CCI [1-Iodo-1H,1H,2H,2H-perfluorononane] | Fst | 0.108 | 0.112 | – | 0 | – | 0.358 | – | 51.7 | 0.1123 | –
NC(=O)C(F)(F)C(F)(F)C(F)(F)C(F)(F)C(F)(F)C(F)(F)C(F)(F)F [Perfluorooctanamide] | 1 | 0.0252 | 0.0263 | – | 0 | – | 0.738 | – | – | 0.0282 | Mean Fu (fraction unbound) [2, 9]: 0.028; Fraction Unbound (fu), Run-specific Avg ([2]; run-specific average): 0.0266; Mean Stability (T5hr/T1hr) [4, 9]: 0.838; Stability (T5hr/ T1hr), Run-specific Avg ([4]; run-specific average): 0.841
OCCCCC(F)(F)C(F)(F)C(F)(F)C(F)(F)F [4:4 Fluorotelomer alcohol] | 1 | 0.0608 | 0.0704 | – | 0 | – | 0.181 | – | 100 | 0.0640 | Aqueous Fraction [2]: 460.145 and 470.255 and 706.065; Aqueous Fraction, Run-specific Avg [2]: 545.49; Fraction Unbound (fu), Run-specific Avg ([2]; average of one UC run): 0.064; Time 1 hr [4]: 11379.4 and 9453.92 and 9594.35; Time 1 hr, Run-specific Avg [4]: 10142.56; Time 5 hr [4]: 9012.64 and 8012.91 and 8571.88; Time 5 hr, Run-specific Avg [4]: 8512.77; Stability (T5hr/ T1hr), Run-specific Avg ([4]; average of one UC run): 0.839; Mean Stability [4, 8]: 0.850
CN(C(=O)C(F)(F)C(F)(F)C(F)(F)F)[Si](C)(C)C [N-Methyl-N-trimethylsilylheptafluorobutyramide] | 1 | 0.532 | 0.545 | 0.935 | 0 | 0.935 | 0.274 | 0.978 and 0.906 and 0.921 | – | 0.5451 | Fraction Unbound (fu), Run-specific Avg [2, 6]: 0.55; Mean Fu ([2]; human plasma): 0.545; Fraction Unbound (fu), replicates A, B, C [2]: 0.507 and 0.525 and 0.603
C=CC(=O)OCC(F)(F)C(F)(F)C(F)(F)C(F)(F)C(F)(F)C(F)(F)C(F)(F)C(F)F [1H,1H,9H-Perfluorononyl acrylate] | 1 | 2.02E-08 | 0.315 | – | 1 | – | 0.000116 | – | 0 | – | –
OCC(F)(F)C(F)(F)C(F)(F)C(F)(F)C(F)(F)C(F)(F)C(F)(F)C(F)(F)C(F)(F)C(F)(F)C(F)(F)F [11:1 Fluorotelomer alcohol] | 1 | 0.0578 | 0.0621 | – | 0 | – | 0.341 | – | 100 | 0.0570 | Aqueous Fraction [2]: 595.593 and 1494.34 and 453.605; Aqueous Fraction, Run-specific Avg [2]: 847.84; Fraction Unbound (fu), Run-specific Avg ([2]; average of one UC run): 0.0569; Time 1 hr [4]: 16624.1 and 16003.4 and 18170.7; Time 1 hr, Run-specific Avg [4]: 16932.71; Time 5 hr [4]: 8697.13 and 19831.5 and 16897.3; Time 5 hr, Run-specific Avg [4]: 14264.32; Stability (T5hr/ T1hr), Run-specific Avg ([4]; average of one UC run): 0.842; Mean Stability [4, 8]: 0.909
